Data published in patent US9513294B2, “Megastokes amino-triazolyl-BODIPY compounds and applications to live neuron staining and human serum albumin FA1 drug site probing” (National University of Singapore, priority 2012, dated 2016).
Each block holds one compound with its values, some of them ahead of it.

Experiments:
[1] = Absorbance and fluorescence emission spectra (SpectraMax M2); format: physicochemical; conditions: MKCA compound library; for λmax Absorp. (nm): absorbance maximum; for λmax Emission (nm): fluorescence emission maximum
How it was run: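 Spectroscopic data, including quantum yields, were recorded with a SpectraMax M2 instrument and analysed in GraphPrism.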

[2] = Quantum yield measurements versus Acridine Yellow in EtOH; format: physicochemical; conditions: MKCA compound library; quantum yield
How it was run: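 Emission areas integrated over 510–700 nm were compared with Acridine Yellow in ethanol (Φ=0.47), all excited at 460 nm. The comparative equation was normalized to excitation-wavelength absorbance and solvent refractive index.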

[3] = test system: mixed primary neural cell populations; assay: Flow cytometry analysis and FACS sorting of mixed primary neural cells; format: cell-based, mouse
From the text: Unstained controls are shown in each spectrum from about 0 to about 1 G.
To further analyze this population of compound positive cells, the two populations (Bright and Dim) were sorted out cell re-culture and RNA extraction for gene analysis.

SMILES: CCCC(C)c1cn(-c2ccc3n2[B-](F)(F)[N+]2=C(NCc4ccccc4C)C=CC2=C3c2ccc(NC(=O)CCl)cc2)nn1 (stereo not shown) [MKCA101-3]
λmax Absorp. (nm) [1]: 464 nm | λmax Emission (nm) [1]: 563 nm | φ (%) [2]: 31.22% | flow cytometry profile of stained mixed neural cell populations [3]: neuronal population segregating from the main population

SMILES: CN(Cc1ccccc1)C1=[N+]2C(=C(c3ccc(NC(=O)CCl)cc3)c3ccc(-n4cc(CCc5ccccc5)nn4)n3[B-]2(F)F)C=C1 [MKCA195-19]
λmax Absorp. (nm) [1]: 467 nm | λmax Emission (nm) [1]: 586 nm | φ (%) [2]: 6.77%

SMILES: CC(C)Cc1cn(-c2ccc3n2[B-](F)(F)[N+]2=C(N(C)Cc4ccccc4)C=CC2=C3c2ccc(NC(=O)CCl)cc2)nn1 [MKCA195-43]
λmax Absorp. (nm) [1]: 465 nm | λmax Emission (nm) [1]: 575 nm | φ (%) [2]: 4.97%

SMILES: CCCCCC(O)c1cn(-c2ccc3n2[B-](F)(F)[N+]2=C(N(C)Cc4ccccc4)C=CC2=C3c2ccc(NC(=O)CCl)cc2)nn1 (stereo not shown) [MKCA195-69]
λmax Absorp. (nm) [1]: 466 nm | λmax Emission (nm) [1]: 582 nm | φ (%) [2]: 4.20%

SMILES: CN(Cc1ccccc1)C1=[N+]2C(=C(c3ccc(NC(=O)CCl)cc3)c3ccc(-n4cc(CO)nn4)n3[B-]2(F)F)C=C1 [MKCA195-70]
λmax Absorp. (nm) [1]: 465 nm | λmax Emission (nm) [1]: 581 nm | φ (%) [2]: 2.58%

SMILES: CCCC(C)c1cn(-c2ccc3n2[B-](F)(F)[N+]2=C(NCc4cc(F)cc(F)c4)C=CC2=C3c2ccc(NC(=O)CCl)cc2)nn1 (stereo not shown) [MKCA412-3]
λmax Absorp. (nm) [1]: 467 nm | λmax Emission (nm) [1]: 563 nm | φ (%) [2]: 41.81%

SMILES: CN(Cc1ccccc1)Cc1cn(-c2ccc3n2[B-](F)(F)[N+]2=C(NCc4cc(F)cc(F)c4)C=CC2=C3c2ccc(NC(=O)CCl)cc2)nn1 [MKCA412-18]
λmax Absorp. (nm) [1]: 463 nm | λmax Emission (nm) [1]: 560 nm | φ (%) [2]: 26.25%

SMILES: O=C(CCl)Nc1ccc(C2=C3C=CC(NCc4cc(F)cc(F)c4)=[N+]3[B-](F)(F)n3c2ccc3-n2cc(CCc3ccccc3)nn2)cc1 [MKCA412-19]
λmax Absorp. (nm) [1]: 466 nm | λmax Emission (nm) [1]: 563 nm | φ (%) [2]: 42.58%

SMILES: CC(C)Cc1cn(-c2ccc3n2[B-](F)(F)[N+]2=C(NCc4cc(F)cc(F)c4)C=CC2=C3c2ccc(NC(=O)CCl)cc2)nn1 [MKCA412-43]
λmax Absorp. (nm) [1]: 468 nm | λmax Emission (nm) [1]: 563 nm | φ (%) [2]: 37.83%

SMILES: CCCc1cn(-c2ccc3n2[B-](F)(F)[N+]2=C(NCc4cc(F)cc(F)c4)C=CC2=C3c2ccc(NC(=O)CCl)cc2)nn1 [MKCA412-48]
λmax Absorp. (nm) [1]: 466 nm | λmax Emission (nm) [1]: 561 nm | φ (%) [2]: 36.09%

SMILES: CCCCCC(O)c1cn(-c2ccc3n2[B-](F)(F)[N+]2=C(NCc4cc(F)cc(F)c4)C=CC2=C3c2ccc(NC(=O)CCl)cc2)nn1 (stereo not shown) [MKCA412-69]
λmax Absorp. (nm) [1]: 465 nm | λmax Emission (nm) [1]: 562 nm | φ (%) [2]: 30.05%

Second part, the compound after the results:

λmax Absorp. (nm) [1]: 463 nm | λmax Emission (nm) [1]: 569 nm | φ (%) [2]: 3.99%
SMILES: CCCC(C)c1cn(-c2ccc3n2[B-](F)(F)[N+]2=C(N4CCCC4)C=CC2=C3c2ccc(NC(=O)CCl)cc2)nn1 (stereo not shown) [MKCA215-3]

λmax Absorp. (nm) [1]: 462 nm | λmax Emission (nm) [1]: 570 nm | φ (%) [2]: 3.35%
SMILES: O=C(CCl)Nc1ccc(C2=C3C=CC(N4CCCC4)=[N+]3[B-](F)(F)n3c2ccc3-n2cc(C3CC3)nn2)cc1 [MKCA215-4]

λmax Absorp. (nm) [1]: 463 nm | λmax Emission (nm) [1]: 574 nm | φ (%) [2]: 1.94%
SMILES: O=C(CCl)Nc1ccc(C2=C3C=CC(N4CCCC4)=[N+]3[B-](F)(F)n3c2ccc3-n2cc(C3CCCC3)nn2)cc1 [MKCA215-5]

λmax Absorp. (nm) [1]: 463 nm | λmax Emission (nm) [1]: 564 nm | φ (%) [2]: 2.66%
SMILES: O=C(CCl)Nc1ccc(C2=C3C=CC(N4CCCC4)=[N+]3[B-](F)(F)n3c2ccc3-n2cc(CC3CCCCC3)nn2)cc1 [MKCA215-8]

λmax Absorp. (nm) [1]: 461 nm | λmax Emission (nm) [1]: 577 nm | φ (%) [2]: 2.62%
SMILES: CN(Cc1ccccc1)Cc1cn(-c2ccc3n2[B-](F)(F)[N+]2=C(N4CCCC4)C=CC2=C3c2ccc(NC(=O)CCl)cc2)nn1 [MKCA215-18]

λmax Absorp. (nm) [1]: 463 nm | λmax Emission (nm) [1]: 573 nm | φ (%) [2]: 4.98%
SMILES: O=C(CCl)Nc1ccc(C2=C3C=CC(N4CCCC4)=[N+]3[B-](F)(F)n3c2ccc3-n2cc(CCc3ccccc3)nn2)cc1 [MKCA215-19]

λmax Absorp. (nm) [1]: 461 nm | λmax Emission (nm) [1]: 570 nm | φ (%) [2]: 4.04%
SMILES: CC(C)Cc1cn(-c2ccc3n2[B-](F)(F)[N+]2=C(N4CCCC4)C=CC2=C3c2ccc(NC(=O)CCl)cc2)nn1 [MKCA215-43]

λmax Absorp. (nm) [1]: 462 nm | λmax Emission (nm) [1]: 565 nm | φ (%) [2]: 4.60%
SMILES: CCCc1cn(-c2ccc3n2[B-](F)(F)[N+]2=C(N4CCCC4)C=CC2=C3c2ccc(NC(=O)CCl)cc2)nn1 [MKCA215-48]

λmax Absorp. (nm) [1]: 462 nm | λmax Emission (nm) [1]: 569 nm | φ (%) [2]: 3.42%
SMILES: CCCCCC(O)c1cn(-c2ccc3n2[B-](F)(F)[N+]2=C(N4CCCC4)C=CC2=C3c2ccc(NC(=O)CCl)cc2)nn1 (stereo not shown) [MKCA215-69]

λmax Absorp. (nm) [1]: 459 nm | λmax Emission (nm) [1]: 568 nm | φ (%) [2]: 1.97%
SMILES: O=C(CCl)Nc1ccc(C2=C3C=CC(N4CCCC4)=[N+]3[B-](F)(F)n3c2ccc3-n2cc(CO)nn2)cc1 [MKCA215-70]

λmax Absorp. (nm) [1]: 467 nm | λmax Emission (nm) [1]: 563 nm | φ (%) [2]: 36.25%
SMILES: O=C(CCl)Nc1ccc(C2=C3C=CC(NCc4cc(F)cc(F)c4)=[N+]3[B-](F)(F)n3c2ccc3-n2cc(C3CC3)nn2)cc1 [MKCA412-4]

λmax Absorp. (nm) [1]: 468 nm | λmax Emission (nm) [1]: 563 nm | φ (%) [2]: 41.21%
SMILES: O=C(CCl)Nc1ccc(C2=C3C=CC(NCc4cc(F)cc(F)c4)=[N+]3[B-](F)(F)n3c2ccc3-n2cc(C3CCCC3)nn2)cc1 [MKCA412-5]

λmax Absorp. (nm) [1]: 467 nm | λmax Emission (nm) [1]: 564 nm | φ (%) [2]: 36.92%
SMILES: O=C(CCl)Nc1ccc(C2=C3C=CC(NCc4cc(F)cc(F)c4)=[N+]3[B-](F)(F)n3c2ccc3-n2cc(CC3CCCCC3)nn2)cc1 [MKCA412-8]

λmax Absorp. (nm) [1]: 464 nm | λmax Emission (nm) [1]: 562 nm | φ (%) [2]: 6.28%
SMILES: O=C(CCl)Nc1ccc(C2=C3C=CC(NCc4cc(F)cc(F)c4)=[N+]3[B-](F)(F)n3c2ccc3-n2cc(CO)nn2)cc1 [MKCA412-70]
